Experimental data taken from US20170135981A1, “Method for Suppressing Glucagon Secretion of an SGLT2 Inhibitor” (AstraZeneca AB, priority 2014, published 2017).

System: glucagon secretion
Assay: Plasma glucagon during a liquid meal tolerance test (MTT) at week 24, radioimmunoassay, randomized 24-week study
Assay type: in vivo, human
Settings: summary of Table 1, added to metformin
Procedure: At the beginning of a 4-week lead-in period, all patients were switched to the nearest metformin XR dose (1,500-2,000 mg/day) for the lead-in period and for the duration of the 24-week treatment period. Patients were then randomized to receive saxagliptin 5 mg/day and dapagliflozin 10 mg/day plus metformin (SAXA+DAPA+MET), saxagliptin 5 mg/day and placebo plus metformin (SAXA+MET), or dapagliflozin 10 mg/day and placebo plus metformin (DAPA+MET) for 24 weeks. Patients were prohibited from receiving other antidiabetic medications (except for open-label rescue medications) during the screening and treatment periods. Postprandial glucose (PPG) was assessed at baseline and week 24 following the administration of a liquid meal tolerance test (MTT, 360-375 kcal; protein, 14-28.2 g; fat, 10.5-14 g; carbohydrates 42-45 g; sugars as a component of carbohydrates, 16.8-22 g, investigation-site dependent). […] The mean change from baseline in the area under the curve from 0 to 180 minutes (AUC0-180 min) was calculated for glucagon obtained during the MTT. Plasma glucagon was measured by radioimmunoassay (LINCO Research, St. Charles, Mo.). AUC0-180 min was calculated based on the trapezoidal rule from model-based estimates of the mean at each time point, including observations prior to rescue. […]

SMILES: CCOc1ccc(Cc2cc([C@@H]3O[C@H](CO)[C@@H](O)[C@H](O)[C@H]3O)ccc2Cl)cc1 [dapagliflozin]
- effect on glucagon levels (in words): increased compared to control
